Values quoted from earlier work as cited in paper PMC6966871 (Journal of Hematology & Oncology, 2020).
Read-outs that look alike come from different tables or passages of the source.

Experiments:
[1] = design: method as in PMID 30724423; details: cited from earlier work
EGFR-mutant NSCLC = test system: EGFR-mutant NSCLC; design: method as in PMID 30156984; details: in combination with gefitinib, EGFR-mutant NSCLC progressed on previous gefitinib; cited from earlier work
[2] = design: method as in PMID 30718102; details: cited from earlier work

Row | SMILES | patients with one or more dose interruptions ([1]; 21 patients) [%] | AE: decreased appetite [1] [%] | AE: diarrhea [1] [%] | AE: increased blood creatinine [1] [%] | AE: nausea [1] | AE: vomiting [1] [%] | AEs leading to discontinuation [1] [%] | adverse events leading to dose adjustment and/or interruption [1] [%] | patients with dose interruption only once ([1]; nine patients) [%] | overall ORR (EGFR-mutant NSCLC) [%] | rate of discontinuation due to an AE ([2]; Japanese NSCLC patients, phase 1) [%] | AE: diarrhea [2] [%] | AE: hypertension [2] [%] | AE: increased ALT [2] [%] | AE: increased AST [2] [%] | AE: palmar-plantar erythrodysesthesia [2] [%] | patients who experienced ≥ grade 3 AEs [2] [%] | patients with dose reduction ([2]; dose-escalation cohorts, about) | patients with discontinuation ([2]; dose-escalation cohorts) [%]
1 | CNC(=O)c1ccc(-c2cnc3ncc(Cc4ccc5ncccc5c4)n3n2)cc1F [capmatinib] | 47.7 | 41 | 25 | 52 | 48 | 39 | 9 | 59 | 20.5 | 27 | – | – | – | – | – | – | – | – | –
2 | COc1cc2nccc(Oc3ccc(NC(=O)C4(C(=O)Nc5ccc(F)cc5)CC4)cc3)c2cc1OC [cabozantinib] | – | – | – | – | – | – | – | – | – | – | 10 | 78 | 87 | 95 | 95 | 100 | 70 | 30–40% | 13
